Measured values published in ChEMBL document CHEMBL4825729, “Modulators of immunoregulatory exonucleases PLD3 and PLD4 identified by high-throughput screen” (Bioorg Med Chem Lett, 2021).

Experiments:
[1] = target: T1, 5'-3' exonuclease PLD3 (Homo sapiens, UniProt Q8IV08); assay: Inhibition of PLD3 (unknown origin) using 3'-dT-MUP as substrate by fluorescence-based screening assay
T1 sequence (Q8IV08 whole entry): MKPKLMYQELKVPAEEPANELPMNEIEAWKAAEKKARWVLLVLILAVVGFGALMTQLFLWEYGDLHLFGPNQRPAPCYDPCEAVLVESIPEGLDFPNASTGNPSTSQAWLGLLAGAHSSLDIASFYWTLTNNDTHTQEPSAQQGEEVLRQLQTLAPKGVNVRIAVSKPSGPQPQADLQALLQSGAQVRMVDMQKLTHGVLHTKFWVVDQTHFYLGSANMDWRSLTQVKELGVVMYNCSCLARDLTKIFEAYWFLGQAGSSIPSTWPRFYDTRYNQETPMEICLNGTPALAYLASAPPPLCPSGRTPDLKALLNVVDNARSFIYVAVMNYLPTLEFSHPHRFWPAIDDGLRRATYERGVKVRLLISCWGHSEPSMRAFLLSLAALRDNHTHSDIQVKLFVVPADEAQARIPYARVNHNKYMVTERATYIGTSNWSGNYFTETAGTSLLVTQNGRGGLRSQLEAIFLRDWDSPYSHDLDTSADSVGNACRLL

[2] = target: T2, 5'-3' exonuclease PLD4 (Homo sapiens, UniProt Q96BZ4); assay: Inhibition of PLD4 (unknown origin) using 3'-dT-MUP as substrate by fluorescence-based screening assay
T2 sequence (Q96BZ4 whole entry): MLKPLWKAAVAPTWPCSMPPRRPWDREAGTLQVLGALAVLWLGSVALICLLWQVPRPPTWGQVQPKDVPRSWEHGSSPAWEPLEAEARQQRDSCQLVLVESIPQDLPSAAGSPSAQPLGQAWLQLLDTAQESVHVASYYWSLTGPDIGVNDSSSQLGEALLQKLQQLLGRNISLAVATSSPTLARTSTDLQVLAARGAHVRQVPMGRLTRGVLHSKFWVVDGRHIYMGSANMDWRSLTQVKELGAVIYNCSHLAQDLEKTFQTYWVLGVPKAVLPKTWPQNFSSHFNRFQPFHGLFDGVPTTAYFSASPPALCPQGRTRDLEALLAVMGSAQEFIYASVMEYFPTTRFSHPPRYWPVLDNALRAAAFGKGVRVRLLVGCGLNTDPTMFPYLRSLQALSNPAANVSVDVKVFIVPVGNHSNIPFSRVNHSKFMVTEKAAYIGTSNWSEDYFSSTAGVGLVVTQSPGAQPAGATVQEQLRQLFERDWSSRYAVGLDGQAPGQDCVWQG

[3] = target: T3, 5'-3' exonuclease PLD3 (Homo sapiens) (UniProt Q8IV08); assay: Mixed type inhibition of PLD3 (unknown origin) assessed as Km using varying concentration 3'-dT-MUP as substrate by fluorescence-based screening assay
T3 sequence (whole entry): T1 sequence (Q8IV08 whole entry)

[4] = target: T3, 5'-3' exonuclease PLD3 (Homo sapiens); assay: Mixed type inhibition of PLD3 (unknown origin) assessed as binding constant using varying concentration 3'-dT-MUP as substrate by fluorescence-based screening assay
[5] = target: T1, 5'-3' exonuclease PLD3; assay: Inhibition of PLD3 (unknown origin) using 3'-dT-nNPP as substrate by fluorescence-based screening assay
[6] = target: T2, 5'-3' exonuclease PLD4; assay: Inhibition of PLD4 (unknown origin) using 3'-dT-nNPP as substrate by fluorescence-based screening assay
[7] = target: T4, 5'-3' exonuclease PLD4 (Homo sapiens) (UniProt Q96BZ4); assay: Competitive inhibition of PLD4 (unknown origin) assessed as Km using varying concentration 3'-dT-MUP as substrate by fluorescence-based screening assay
T4 sequence (whole entry): T2 sequence (Q96BZ4 whole entry)

[8] = target: T4, 5'-3' exonuclease PLD4 (Homo sapiens); assay: Competitive inhibition of PLD4 (unknown origin) assessed as binding constant using varying concentration 3'-dT-MUP as substrate by fluorescence-based screening assay
[9] = target: T1, 5'-3' exonuclease PLD3; assay: Activation of PLD3 (unknown origin) using 3'-dT-MUP as substrate by fluorescence-based screening assay
[10] = target: T2, 5'-3' exonuclease PLD4; assay: Activation of PLD4 (unknown origin) using 3'-dT-MUP as substrate by fluorescence-based screening assay
[11] = target: T2, 5'-3' exonuclease PLD4; assay: Activation of PLD4 (unknown origin) using 3'-dT-nNPP as substrate by fluorescence-based screening assay
[12] = target: T1, 5'-3' exonuclease PLD3; assay: Activation of PLD3 (unknown origin) using 3'-dT-nNPP as substrate by fluorescence-based screening assay
[13] = target: T3, 5'-3' exonuclease PLD3 (Homo sapiens); assay: Activation of PLD3 (unknown origin) assessed as association constant using varying concentration 3'-dT-MUP as substrate by fluorescence-based screening assay; details: filed as activator
[14] = substrate: Cc1cn([C@H]2C[C@H](O)[C@@H](COP(=O)(O)Oc3ccc([N+](=O)[O-])cc3)O2)c(=O)[nH]c1=O; assay: (§1) Substrate activity at PLD4 (unknown origin) assessed as Km by Michaelis-Menten kinetic model based fluorescence assay; details: Homo sapiens
[15] = substrate: Cc1cn([C@H]2C[C@H](OP(=O)(O)Oc3ccc([N+](=O)[O-])cc3)[C@@H](CO)O2)c(=O)[nH]c1=O; assay: as §1; details: Homo sapiens
[16] = substrate: Cc1cn([C@H]2C[C@H](O)[C@@H](COP(=O)(O)Oc3ccc([N+](=O)[O-])cc3)O2)c(=O)[nH]c1=O; assay: (§2) Substrate activity at PLD4 (unknown origin) assessed as Kcat by Michaelis-Menten kinetic model based fluorescence assay; details: Homo sapiens
[17] = substrate: Cc1cn([C@H]2C[C@H](OP(=O)(O)Oc3ccc([N+](=O)[O-])cc3)[C@@H](CO)O2)c(=O)[nH]c1=O; assay: as §2; details: Homo sapiens
[18] = substrate: Cc1cn([C@H]2C[C@H](O)[C@@H](COP(=O)(O)Oc3ccc([N+](=O)[O-])cc3)O2)c(=O)[nH]c1=O; assay: (§3) Substrate activity at PLD4 (unknown origin) assessed as ratio of Kcat to Km by Michaelis-Menten kinetic model based fluorescence assay; details: Homo sapiens
[19] = substrate: Cc1cn([C@H]2C[C@H](OP(=O)(O)Oc3ccc([N+](=O)[O-])cc3)[C@@H](CO)O2)c(=O)[nH]c1=O; assay: as §3; details: Homo sapiens
[20] = compound: Cc1cc(C)cc(N2CCn3c2nc2c3c(=O)n(CC(=O)O)c(=N)n2C)c1; assay: Competitive inhibition of PLD4 (unknown origin) assessed as Vmax using varying concentration 3'-dT-MUP as substrate by fluorescence-based screening assay; details: Homo sapiens
[21] = substrate: Cc1cn([C@H]2C[C@H](O)[C@@H](COP(=O)(O)Oc3ccc([N+](=O)[O-])cc3)O2)c(=O)[nH]c1=O; assay: (§4) Substrate activity at PLD3 (unknown origin) assessed as Km by Michaelis-Menten kinetic model based fluorescence assay; details: Homo sapiens
[22] = substrate: Cc1cn([C@H]2C[C@H](OP(=O)(O)Oc3ccc([N+](=O)[O-])cc3)[C@@H](CO)O2)c(=O)[nH]c1=O; assay: as §4; details: Homo sapiens
[23] = substrate: Cc1cn([C@H]2C[C@H](O)[C@@H](COP(=O)(O)Oc3ccc([N+](=O)[O-])cc3)O2)c(=O)[nH]c1=O; assay: (§5) Substrate activity at PLD3 (unknown origin) assessed as Kcat by Michaelis-Menten kinetic model based fluorescence assay; details: Homo sapiens
[24] = substrate: Cc1cn([C@H]2C[C@H](OP(=O)(O)Oc3ccc([N+](=O)[O-])cc3)[C@@H](CO)O2)c(=O)[nH]c1=O; assay: as §5; details: Homo sapiens
[25] = substrate: Cc1cn([C@H]2C[C@H](O)[C@@H](COP(=O)(O)Oc3ccc([N+](=O)[O-])cc3)O2)c(=O)[nH]c1=O; assay: (§6) Substrate activity at PLD3 (unknown origin) assessed as ratio of Kcat to Km by Michaelis-Menten kinetic model based fluorescence assay; details: Homo sapiens
[26] = substrate: Cc1cn([C@H]2C[C@H](OP(=O)(O)Oc3ccc([N+](=O)[O-])cc3)[C@@H](CO)O2)c(=O)[nH]c1=O; assay: as §6; details: Homo sapiens
[27] = compound: Cc1cc(C)cc(N2CCn3c2nc2c3c(=O)n(CC(=O)O)c(=N)n2C)c1; assay: (§7) Mixed type inhibition of PLD3 (unknown origin) assessed as Vmax using varying concentration 3'-dT-MUP as substrate by fluorescence-based screening assay; details: Homo sapiens
[28] = compound: Cc1ccc(Cn2c(SCC(=O)O)nc3c2c(=O)n(C)c(=O)n3C)cc1; assay: as §7; details: Homo sapiens
[29] = compound: Cc1nc(SCC(=O)N2CCC(C)CC2)c2ccsc2n1; assay: Activation of PLD3 (unknown origin) assessed as Km using varying concentration 3'-dT-MUP as substrate by fluorescence-based screening assay; details: Homo sapiens; filed as activator
[30] = compound: Cc1nc(SCC(=O)N2CCC(C)CC2)c2ccsc2n1; assay: Activation of PLD3 (unknown origin) assessed as Vmax using varying concentration 3'-dT-MUP as substrate by fluorescence-based screening assay; details: Homo sapiens; filed as activator

Cc1ccc(Cn2c(SCC(=O)O)nc3c2c(=O)n(C)c(=O)n3C)cc1
IC50 [1]: 13 µM | IC50 [2]: 142 µM | INH [3]: 13.6 µM | INH [4]: 6.2 µM | IC50 [5]: 8.9 µM | IC50 [6]: 128 µM

Cc1cc(C)cc(N2CCn3c2nc2c3c(=O)n(CC(=O)O)c(=N)n2C)c1
IC50 [1]: 39.6 µM | IC50 [2]: 14.7 µM | INH [7]: 64.5 µM | INH [8]: 32.4 µM | INH [3]: 14.9 µM | INH [4]: 28.9 µM | IC50 [5]: 127 µM | IC50 [6]: 19 µM

Cc1nc(SCC(=O)N2CCC(C)CC2)c2ccsc2n1
EC50 [9]: 12.8 µM | EC50 [10]: 115 µM | EC50 [11]: Not Active | EC50 [12]: 19.6 µM | Ka [13]: 80.9 µM

B1: 5'-3' exonuclease PLD4 (Homo sapiens), Q96BZ4 (protein)
chain: T2 sequence (Q96BZ4 whole entry)
kcat [14]: 47 s⁻¹ | kcat [15]: 18.9 s⁻¹ | Km [16]: 860 µM | Km [17]: 378 µM | kcat/Km [18]: 86.6 M⁻¹ s⁻¹ | kcat/Km [19]: 5 M⁻¹ s⁻¹ | Vmax [20]: 1560 /RU/s

B2: 5'-3' exonuclease PLD3 (Homo sapiens), Q8IV08 (protein)
chain: T1 sequence (Q8IV08 whole entry)
Km [21]: 1350 µM | Km [22]: 302 µM | kcat/Km [23]: 34.8 M⁻¹ s⁻¹ | kcat/Km [24]: 6.26 M⁻¹ s⁻¹ | kcat [25]: 74.5 s⁻¹ | kcat [26]: 18.9 s⁻¹ | Vmax [27]: 318 /RU/s | Vmax [28]: 313 /RU/s | Km [29]: 14.7 µM | Vmax [30]: 327 /RU/s
